Experimental data reported in patent publication US8343475B2, “Small cationic antimicrobial peptides” (priority 2006, dated 2013).
No end group written: not given here.

Legend:
Assay in all cases: Chemokine induction in PBMC (capture ELISA)
Format in all cases: cell-based
[1] = test system: MCP-1 release by human PBMC; conditions: background (204) subtracted
Procedure: FIG. 15. Induction of MCP-1 release by 7.5×10^5 human PBMC in response to treatment with 20 or 100 μg/ml of different peptides for 24 hours.
(§1) Venous blood (20 ml) from healthy volunteers was collected in Vacutainer® collection tubes containing sodium heparin as an anticoagulant (Becton Dickinson, Mississauga, ON) in accordance with UBC ethical approval and guidelines. Blood was diluted 1:1 with complete RPMI 1640 medium and separated by centrifugation over a Ficoll-Paque® Plus (Amersham Biosciences, Piscataway, N.J., USA) density gradient. White blood cells were isolated from the buffy coat, washed twice in RPMI 1640 complete medium, and the number of peripheral blood mononuclear cells (PBMC) was determined by trypan blue exclusion. PBMC (5×10^5) were seeded into 12-well tissue culture dishes (Falcon; Becton Dickinson) at 0.75 to 1×10^6 cells/ml at 37° C. in 5% CO2. The above conditions were chosen to mimic conditions for circulating blood monocytes entering tissues at the site of infection via extravasation.
(§2) Following incubation of the cells under various treatment regimens, the tissue culture supernatants were centrifuged at 1000×g for 5 min, then at 10,000×g for 2 min to obtain cell-free samples. Supernatants were aliquoted and then stored at −20° C. prior to assay for various chemokines by capture ELISA (eBioscience and BioSource International Inc., CA, USA respectively)

[2] = test system: MCP-3 release by human PBMC; conditions: background (6) subtracted
Procedure: FIG. 16. Induction of MCP3 release by 7.5×10^5 human PBMC in response to treatment with 20 or 100 μg/ml of different peptides for 24 hours.
as §1, §2

[3] = test system: CXCL1 (Gro-α) release by human PBMC; conditions: background (196) subtracted
Procedure: FIG. 17. Induction of CXCL1 (Gro-α) release by 7.5×10^5 human PBMC in response to treatment with 20 or 100 μg/ml of different peptides for 24 hours.
as §1, §2

Substance	Chemokine induction MCP-1 ([1]; 20 μg/ml peptide) [pg/mL]	Chemokine induction MCP-1 ([1]; 100 μg/ml peptide) [pg/mL]	Chemokine induction MCP-3 ([2]; 20 μg/ml peptide) [pg/mL]	Chemokine induction MCP-3 ([2]; 100 μg/ml peptide) [pg/mL]	Chemokine induction Gro-α ([3]; 20 μg/ml peptide) [pg/mL]	Chemokine induction Gro-α ([3]; 100 μg/ml peptide) [pg/mL]
1047 (IIRRWWV) [compound 1047]	8	130	0	0	-1	-3
VIWIRWR (VIWIRWR-NH2) [compound 1041]	146	1218	7	53	110	450
1021 (VRLRIRVAV) [compound 1021]	158	276	3	10	29	112
VQLRIWVRR (VQLRIWVRR-NH2) [compound 1006]	392	3004	0	58	65	1245
1040 (FQVVKIKVR) [compound 1040]	74	1143	0	9	2	264
1009 (AIRVVRARLVRR) [compound 1009]	634	1093	6	6	230	377
FRIRVRVIR (FRIRVRVIR-NH2) [compound 1030]	139	2075	1	35	10	674
1019 (IVVWRRQLVKNK) [compound 1019]	27	438	0	0	5	43
1014 (RQVIVRRW) [compound 1014]	83	175	0	1	6	15
1042 (IVWIWRR) [compound 1042]	-7	12	3	3	44	9
1017 (KRIVRRLVARIV) [compound 1017]	585	1019	0	0	56	250
1003 (IVWKIKRWWVGR) [compound 1003]	31	1361	0	5	65	170
WIVIWRR (WIVIWRR-NH2) [compound 1043]	98	1998	0	21	26	881
1022 (LRIRVIVWR) [compound 1022]	52	983	0	1	10	64
1048 (IRWVIRW) [compound 1048]	96	38	0	0	7	-11
1011 (RRWVVWRIVQRR) [compound 1011]	579	2282	1	35	46	308
1008 (RIKWIVRFR) [compound 1008]	633	1775	1	22	109	869
1016 (LRIRWIFKR) [compound 1016]	269	819	1	27	26	247
1039 (IWVIRRVWR) [compound 1039]	603	2420	13	67	469	1717
1046 (WIRVIRW) [compound 1046]	46	449	1	4	38	147
1023 (IRVWVLRQR) [compound 1023]	250	712	0	1	36	38
1044 (RRWIVWI) [compound 1044]	1561	5024	115	261	1963	1545
1038 (IVVRRVIRK) [compound 1038]	25	1552	0	41	12	518
1034 (KQFRNRLRIVKK) [compound 1034]	434	796	0	4	60	61
1036 (VQFRIRVIVIRK) [compound 1036]	601	968	1	39	51	137
LVRAIQVRAVIR (LVRAIQVRAVIR-NH2) [compound 1001]	516	2491	0	40	88	850
1007 (WNRVKWIRR) [compound 1007]	103	247	7	28	65	170
1029 (KQFRIRVRV) [compound 1029]	296	205	3	3	49	60
1004 (RFWKVRVKYIRF) [compound 1004]	300	1680	1	30	55	336
1027 (KKQVSRVKVWRK) [compound 1027]	54	1466	0	14	8	204
